Patent US20030224416A1, “Schizophrenia related gene” (priority 2002, published 2003)

Tested on: Kv3.1 α-subunit mRNA
Experiment: Experiment 1: in situ hybridization of Kv3.1 α-subunit mRNA in brain, chronic PCP rat model of schizophrenia with antipsychotic co-treatment
Type: in vivo

Cc1cc2c(s1)Nc1ccccc1N=C2N1CCN(C)CC1 [Olanzapine, olanzapine]
Kv3.1 α-subunit mRNA expression (ACg, PCP + drug 0.3 mg/kg/day): 15.83 ± 0.73 PSL/mm^2 | Kv3.1 α-subunit mRNA expression (ACg, PCP + drug 1 mg/kg/day): 14.83 ± 1.00 PSL/mm^2 | Kv3.1 α-subunit mRNA expression (ACg, PCP + drug 3 mg/kg/day): 16.31 ± 0.40 PSL/mm^2 | Kv3.1 α-subunit mRNA expression (ACg, PCP + drug 10 mg/kg/day): 15.03 ± 0.72 PSL/mm^2 | Kv3.1 α-subunit mRNA expression (AcbC, PCP + drug 0.3 mg/kg/day): 8.59 ± 0.58 PSL/mm^2 | Kv3.1 α-subunit mRNA expression (AcbC, PCP + drug 1 mg/kg/day): 8.12 ± 0.67 PSL/mm^2 | Kv3.1 α-subunit mRNA expression (AcbC, PCP + drug 3 mg/kg/day): 8.55 ± 0.25 PSL/mm^2 | Kv3.1 α-subunit mRNA expression (AcbC, PCP + drug 10 mg/kg/day): 8.27 ± 0.31 PSL/mm^2 | Kv3.1 α-subunit mRNA expression (AcbS, PCP + drug 0.3 mg/kg/day): 11.42 ± 0.73 PSL/mm^2 | Kv3.1 α-subunit mRNA expression (AcbS, PCP + drug 1 mg/kg/day): 10.43 ± 0.56 PSL/mm^2 | Kv3.1 α-subunit mRNA expression (AcbS, PCP + drug 3 mg/kg/day): 11.62 ± 0.84 PSL/mm^2 | Kv3.1 α-subunit mRNA expression (AcbS, PCP + drug 10 mg/kg/day): 11.95 ± 1.02 PSL/mm^2 | Kv3.1 α-subunit mRNA expression (Au1, PCP + drug 0.3 mg/kg/day): 18.60 ± 1.75 PSL/mm^2 | Kv3.1 α-subunit mRNA expression (Au1, PCP + drug 1 mg/kg/day): 18.68 ± 0.80 PSL/mm^2 | Kv3.1 α-subunit mRNA expression (Au1, PCP + drug 3 mg/kg/day): 17.42 ± 1.46 PSL/mm^2 | Kv3.1 α-subunit mRNA expression (Au1, PCP + drug 10 mg/kg/day): 16.91 ± 0.86 PSL/mm^2 | Kv3.1 α-subunit mRNA expression (CA1pd, PCP + drug 0.3 mg/kg/day): 19.98 ± 1.59 PSL/mm^2 | Kv3.1 α-subunit mRNA expression (CA1pd, PCP + drug 1 mg/kg/day): 19.14 ± 2.06 PSL/mm^2 | Kv3.1 α-subunit mRNA expression (CA1pd, PCP + drug 3 mg/kg/day): 18.37 ± 1.54 PSL/mm^2 | Kv3.1 α-subunit mRNA expression (CA1pd, PCP + drug 10 mg/kg/day): 20.15 ± 1.22 PSL/mm^2 | Kv3.1 α-subunit mRNA expression (CA2pd, PCP + drug 0.3 mg/kg/day): 21.36 ± 2.52 PSL/mm^2 | Kv3.1 α-subunit mRNA expression (CA2pd, PCP + drug 1 mg/kg/day): 17.72 ± 1.86 PSL/mm^2 | Kv3.1 α-subunit mRNA expression (CA2pd, PCP + drug 10 mg/kg/day): 20.59 ± 1.35 PSL/mm^2 | Kv3.1 α-subunit mRNA expression (CA3pd, PCP + drug 0.3 mg/kg/day): 33.71 ± 3.48 PSL/mm^2 | Kv3.1 α-subunit mRNA expression (CA3pd, PCP + drug 1 mg/kg/day): 30.50 ± 1.94 PSL/mm^2 | Kv3.1 α-subunit mRNA expression (CA3pd, PCP + drug 3 mg/kg/day): 33.46 ± 2.04 PSL/mm^2 | Kv3.1 α-subunit mRNA expression (CA3pd, PCP + drug 10 mg/kg/day): 32.81 ± 1.82 PSL/mm^2 | Kv3.1 α-subunit mRNA expression (DGgd, PCP + drug 0.3 mg/kg/day): 35.22 ± 1.16 PSL/mm^2 | Kv3.1 α-subunit mRNA expression (DGgd, PCP + drug 1 mg/kg/day): 33.04 PSL/mm^2 | Kv3.1 α-subunit mRNA expression (DGgd, PCP + drug 3 mg/kg/day): 36.51 ± 1.07 PSL/mm^2 | Kv3.1 α-subunit mRNA expression (DGgd, PCP + drug 10 mg/kg/day): 38.16 ± 1.10 PSL/mm^2 | Kv3.1 α-subunit mRNA expression (IL, PCP + drug 0.3 mg/kg/day): 12.00 ± 0.65 PSL/mm^2 | Kv3.1 α-subunit mRNA expression (IL, PCP + drug 1 mg/kg/day): 11.27 ± 1.08 PSL/mm^2 | Kv3.1 α-subunit mRNA expression (IL, PCP + drug 3 mg/kg/day): 11.40 ± 0.41 PSL/mm^2 | Kv3.1 α-subunit mRNA expression (IL, PCP + drug 10 mg/kg/day): 12.15 ± 0.62 PSL/mm^2 | Kv3.1 α-subunit mRNA expression (IO, PCP + drug 0.3 mg/kg/day): 15.50 ± 0.51 PSL/mm^2 | Kv3.1 α-subunit mRNA expression (IO, PCP + drug 1 mg/kg/day): 16.18 ± 0.32 PSL/mm^2 | Kv3.1 α-subunit mRNA expression (IO, PCP + drug 3 mg/kg/day): 16.83 ± 0.79 PSL/mm^2 | Kv3.1 α-subunit mRNA expression (IO, PCP + drug 10 mg/kg/day): 17.74 ± 0.37 PSL/mm^2 | Kv3.1 α-subunit mRNA expression (M1, PCP + drug 0.3 mg/kg/day): 15.83 ± 0.69 PSL/mm^2 | Kv3.1 α-subunit mRNA expression (M1, PCP + drug 1 mg/kg/day): 16.17 ± 1.27 PSL/mm^2 | Kv3.1 α-subunit mRNA expression (M1, PCP + drug 3 mg/kg/day): 16.17 ± 0.79 PSL/mm^2 | Kv3.1 α-subunit mRNA expression (M1, PCP + drug 10 mg/kg/day): 16.27 ± 0.37 PSL/mm^2 | Kv3.1 α-subunit mRNA expression (M2, PCP + drug 3 mg/kg/day): 14.48 ± 0.90 PSL/mm^2 | Kv3.1 α-subunit mRNA expression (MG, PCP + drug 0.3 mg/kg/day): 26.64 ± 2.22 PSL/mm^2 | Kv3.1 α-subunit mRNA expression (MM, PCP + drug 10 mg/kg/day): 4.69 ± 2.24 PSL/mm^2 | Kv3.1 α-subunit mRNA expression (Pir, PCP + drug 0.3 mg/kg/day): 37.73 ± 1.18 PSL/mm^2 | Kv3.1 α-subunit mRNA expression (Pir, PCP + drug 1 mg/kg/day): 36.82 ± 0.51 PSL/mm^2 | Kv3.1 α-subunit mRNA expression (Pir, PCP + drug 3 mg/kg/day): 43.78 ± 1.20 PSL/mm^2 | Kv3.1 α-subunit mRNA expression (Pir, PCP + drug 10 mg/kg/day): 40.66 ± 2.21 PSL/mm^2 | Kv3.1 α-subunit mRNA expression (RSa, PCP + drug 0.3 mg/kg/day): 16.53 ± 1.13 PSL/mm^2 | Kv3.1 α-subunit mRNA expression (RSa, PCP + drug 1 mg/kg/day): 16.92 ± 0.74 PSL/mm^2 | Kv3.1 α-subunit mRNA expression (RSa, PCP + drug 3 mg/kg/day): 18.21 ± 1.15 PSL/mm^2 | Kv3.1 α-subunit mRNA expression (RSa, PCP + drug 10 mg/kg/day): 18.77 ± 1.07 PSL/mm^2 | Kv3.1 α-subunit mRNA expression (RSg, PCP + drug 0.3 mg/kg/day): 19.48 ± 0.72 PSL/mm^2 | Kv3.1 α-subunit mRNA expression (RSg, PCP + drug 1 mg/kg/day): 19.43 ± 1.20 PSL/mm^2 | Kv3.1 α-subunit mRNA expression (RSg, PCP + drug 3 mg/kg/day): 20.96 ± 1.08 PSL/mm^2 | Kv3.1 α-subunit mRNA expression (RSg, PCP + drug 10 mg/kg/day): 19.59 ± 0.92 PSL/mm^2 | Kv3.1 α-subunit mRNA expression (VMStr, PCP + drug 3 mg/kg/day): 7.52 PSL/mm^2 | Kv3.1 α-subunit mRNA expression (VMStr, PCP + drug 10 mg/kg/day): 5.99 ± 0.28 PSL/mm^2 | Kv3.1 α-subunit mRNA expression (VO, PCP + drug 0.3 mg/kg/day): 19.03 ± 1.00 PSL/mm^2 | Kv3.1 α-subunit mRNA expression (VO, PCP + drug 1 mg/kg/day): 18.35 ± 1.04 PSL/mm^2 | Kv3.1 α-subunit mRNA expression (VO, PCP + drug 3 mg/kg/day): 18.96 ± 0.86 PSL/mm^2 | Kv3.1 α-subunit mRNA expression (VO, PCP + drug 10 mg/kg/day): 19.88 ± 0.58 PSL/mm^2 | Kv3.1 α-subunit mRNA expression (dRt, PCP + drug 0.3 mg/kg/day): 50.99 ± 2.22 PSL/mm^2 | Kv3.1 α-subunit mRNA expression (dRt, PCP + drug 1 mg/kg/day): 50.92 ± 3.80 PSL/mm^2 | Kv3.1 α-subunit mRNA expression (dRt, PCP + drug 3 mg/kg/day): 52.87 ± 1.95 PSL/mm^2 | Kv3.1 α-subunit mRNA expression (dRt, PCP + drug 10 mg/kg/day): 52.42 ± 1.19 PSL/mm^2 | Kv3.1 α-subunit mRNA expression (vRt, PCP + drug 0.3 mg/kg/day): 54.57 ± 3.12 PSL/mm^2 | Kv3.1 α-subunit mRNA expression (vRt, PCP + drug 1 mg/kg/day): 46.70 ± 3.99 PSL/mm^2 | Kv3.1 α-subunit mRNA expression (vRt, PCP + drug 3 mg/kg/day): 42.97 ± 2.22 PSL/mm^2 | Kv3.1 α-subunit mRNA expression (vRt, PCP + drug 10 mg/kg/day): 53.69 ± 2.07 PSL/mm^2
